We go through six compounds from ChEMBL document CHEMBL1133460, “Synthesis and biological evaluation of certain alpha,beta-unsaturated ketones and their corresponding fused pyridines as antiviral and cytotoxic agents” (J Med Chem, 2000).

“And” between values parts separate entries of the source, which are not always exact repeats. Identical values can stand only once.

Assay [1] relates to Human immunodeficiency virus 1. The assay is described as follows: In vitro effective concentration against HIV-1 cytopathic effect in T4 cells; Inactive. Type of assay: functional, organism-based.
Another assay deals with MT4. The assay is described as follows: In vitro inhibitory activity against uninfected T4 cells. Format: functional, cell-based. Particulars: Homo sapiens; call rule not given here.
For assay [2], the system named is Ovarian cancer cell line. The assay is described as follows: In vitro growth inhibitory concentration against ovarian cancer cell lines. Format: functional. The note with it: Homo sapiens.
Assay [3] deals with Panel prostate (Carcinoma cell lines). The assay is described as follows: In vitro growth inhibitory concentration against prostate cancer cell lines. Format: functional. The note with it: Homo sapiens.
Assay [4] deals with NSCLC. Kind of assay: In vitro growth inhibitory concentration against non-small-cell lung cancer. Particulars: Homo sapiens. Type of assay: functional.
Assay [5] has as its system Panel renal (Carcinoma cell lines). The assay is described as follows: In vitro median growth inhibitory concentration against renal cancer cell lines. Type of assay: functional. Particulars: Homo sapiens.
The test system is the same in assay [6]. Kind of assay: In vitro growth inhibitory concentration against renal cancer cell lines. Type of assay: functional. The note with it: Homo sapiens.
The test system of assay [7] is Panel CNS (Carcinoma cell lines). Kind of assay: In vitro median growth inhibitory concentration against CNS cancer cell lines. Type of assay: functional. The note with it: Homo sapiens.
The test system of assay [8] is Panel leukemia (Carcinoma cell lines). The assay is described as follows: In vitro median growth inhibitory conc. against leukemia was estimated. Format: functional. The note with it: Homo sapiens.
The subject of assay [9] is Breast cancer cell line. The assay is described as follows: In vitro growth inhibitory concentration against breast cancer cell lines. Type of assay: functional. Particulars: Homo sapiens.
In assay [10] the test system is NSCLC. The assay is described as follows: In vitro median growth inhibitory concentration against non-small-cell lung cancer. Format: functional. Particulars: Homo sapiens.
Assay [11] can be described thus: Full panel mean-graph midpoint (MG-MID).
Assay [12] relates to Panel leukemia (Carcinoma cell lines). The assay is described as follows: In vitro growth inhibitory concentration against leukemia tumor cell lines. Type of assay: functional. Particulars: Homo sapiens.
Assay [13] has as its system Ovarian cancer cell line. The assay is described as follows: In vitro median growth inhibitory concentration against ovarian cancer cell lines. Format: functional. The note with it: Homo sapiens.
A short description of assay [14]: In vitro median growth inhibitory concentration against colon cancer cell lines. Type of assay: functional. Particulars: Homo sapiens.
Assay [15] has as its system Panel melanoma (Carcinoma cell lines). The assay is described as follows: In vitro growth inhibitory concentration against melanoma cancer cell lines. Type of assay: functional. The note with it: Homo sapiens.
Assay [16] in a line: In vitro growth inhibitory concentration against colon cancer tumor cell lines. Format: functional. Particulars: Homo sapiens.
Assay [17] deals with Panel melanoma (Carcinoma cell lines). Kind of assay: In vitro median growth inhibitory concentration against melanoma cell lines. Type of assay: functional. The note with it: Homo sapiens.
Assay [18] relates to Breast cancer cell line. Kind of assay: In vitro median growth inhibitory concentration against breast cancer cell lines. Type of assay: functional. Particulars: Homo sapiens.
The test system of assay [19] is Panel prostate (Carcinoma cell lines). Kind of assay: In vitro median growth inhibitory concentration against prostate cancer cell lines. Format: functional. The note with it: Homo sapiens.
The species entered for another assay is Homo sapiens. The assay is described as follows: Selectivity ratio between the full panel MG-MID and leukemia subpanel MG-MID was determined. Type of assay: functional.
Assay [20] deals with Panel CNS (Carcinoma cell lines). The assay is described as follows: In vitro growth inhibitory concentration against CNS cancer cell lines. Type of assay: functional. Particulars: Homo sapiens.

Usually IC50 stands for the point on the concentration scale where inhibition reaches its midpoint. On to `Cc1ccc(/C=C2\CN(C)Cc3c2nc(O)c(C#N)c3-c2ccc(C)cc2)cc1`, for which the EC50 entry in assay [1] is listed as “Not Active”. The IC50 in the assay with MT4 is > 200 µM.

One may read the TGI as the concentration giving total growth inhibition. Low readings indicate greater sensitivity of the cells, high ones lower sensitivity of the cells. The term GI50 denotes the concentration giving 50% growth inhibition. Turning to `CN1C/C(=C\c2cccs2)C2=NN(C)C(c3cccs3)C2C1` (stereo not drawn), the TGI was > 100 µM with Ovarian cancer cell line [2]; > 100 µM in assay [3]; > 100 µM with NSCLC [4]; > 100 µM in [6]; > 100 µM with Breast cancer cell line [9]; 87.8 µM in assay [12]. In addition, the TGI in assay [15] was 97.7 µM; in [16], > 100 µM; in [20] it was > 100 µM. Moreover, the 50% growth inhibitory concentration (GI50) in assay [5] is 89.7 µM; in [7] it was 80.7 µM; in [8] it was 31.8 µM; with NSCLC [10], 86.4 µM; in the assay on Ovarian cancer cell line [13], 74.4 µM; in [14], 79.2 µM. The GI50 in assay [17] turned out to be 85 µM; with Breast cancer cell line [18] it was 86 µM; in [19], 59.5 µM. Besides, the EC50 result in assay [1] is recorded as “Not Active”. Besides, in the assay with MT4, the IC50 was > 200 µM. Also, the MG-MID in assay [11] was 68 µM and 97.7 µM. Further, the Ratio in the assay listed under Homo sapiens came to 2.1.

Turning to `CN1C/C(=C\c2cccs2)C(O)/C(=C/c2cccs2)C1` (stereo not drawn), the TGI was > 100 µM in the assay on Ovarian cancer cell line [2]; > 100 µM in [3]; > 100 µM in the assay with NSCLC [4]; > 100 µM in assay [6]; 96.8 µM with Breast cancer cell line [9]; 78.1 µM in assay [12]. The TGI in assay [15], in assay [16] and in assay [20] was > 100 µM in each case. Also, the GI50 in assay [5] was 96.2 µM; in [7], > 100 µM; in assay [8], 32.5 µM; in the assay with NSCLC [10] it was 83.9 µM; in the assay with Ovarian cancer cell line [13], 81.4 µM; in [14], 85.8 µM. Moreover, the GI50 in assay [17] is 92.5 µM; with Breast cancer cell line [18], 84.3 µM; in [19], > 100 µM. In addition, the EC50 result in [1] is reported as “Not Active”. In the assay on MT4, this compound displayed an IC50 of 126 µM. In assay [11], the MG-MID was 77.1 µM and 97.7 µM. The Ratio in the assay listed under Homo sapiens was determined as 2.4.

Turning to `Cc1ccc(/C=C2\CN(C)CC3C2=NN(c2ccccc2)C3c2ccc(C)cc2)cc1` (stereo not drawn), the GI50 in assay [5] was 83.7 µM; in assay [7] it was 77 µM; in [8], 37.4 µM; in the assay with NSCLC [10] it was 97.4 µM; in the assay on Ovarian cancer cell line [13] it was 92.8 µM; in assay [14], > 100 µM. In addition, the GI50 is 77.9 µM in assay [17], > 100 µM with Breast cancer cell line [18] and 69.5 µM in [19]. In addition, in assay [1], the EC50 result is reported as “Not Active”. In addition, the IC50 in the assay with MT4 is > 200 µM. This compound also displayed an MG-MID in [11] of 81 µM. Besides, the Ratio in the assay listed under Homo sapiens worked out at 2.2.

Turning to `COc1ccc(/C=C2\CN(C)Cc3c2nc(O)c(C#N)c3-c2ccc(OC)cc2)cc1`, the TGI in the assay on Ovarian cancer cell line [2] was > 100 µM; in [3], > 100 µM; with NSCLC [4], > 100 µM; in assay [6], 87.8 µM; in the assay on Breast cancer cell line [9], > 100 µM; in [12] it was 80.7 µM. The TGI in assay [15], in assay [16] and in assay [20] was > 100 µM throughout. Besides, the GI50 is 61.2 µM in assay [5]; 44.9 µM in assay [7]; 35 µM in assay [8]; 66.6 µM in the assay with NSCLC [10]; 51.8 µM in the assay on Ovarian cancer cell line [13]; 60.5 µM in assay [14]. Moreover, the GI50 in [17] came out at 79.9 µM; with Breast cancer cell line [18], 66.9 µM; in [19] it was 70.9 µM. The EC50 entry in assay [1] is given as “Not Active”. In the assay on MT4, the IC50 is 104 µM. Besides, the MG-MID in assay [11] was 52.5 µM and 95.8 µM. In the assay filed under Homo sapiens, the Ratio came to 1.5.

Consider `CN1C/C(=C\c2cccs2)c2nc(O)c(C#N)c(-c3cccs3)c2C1`, for which the EC50 entry in [1] is given as “Not Active”. In addition, the IC50 with MT4 was > 200 µM.
